The subject of assay [1] is AB12 cells. Description: Annexin V/PI assay (necrosis), flow cytometry. The format is cell-based, mouse. Conditions: AB12, 5 × IC50 (72 h), 100 min. As for the experimental part:
centrifugation of the cells (300 × g, 5 min), 5 ml of fresh RPMI was introduced, and the cells were seeded at a density of 5 x 10^5 cells per well into Cellstar 6-well plates (Greiner Bio-One) (1 ml per well). J774 macrophages (70-80% confluence in a T75 flask) were detached by scraping, centrifuged (300 × g, 5 min). The medium was substituted with 1 ml of DMEM containing CellTracker Green CMFDA (1 μM) and the J774 macrophages were stained at 37°C for 30 minutes. Following centrifugation of the J774 macrophages (300 × g, 5 min), 5 ml of fresh DMEM was introduced, and the macrophages were seeded into a 100 cm2 petri dish (SPL Life Sciences, Korea). After 24 h, the media in AB12 cells was replaced with 1 ml of fresh RPMI containing compounds of interest at equipotent concentration of 5 × IC50 and incubated for 100 minutes. After removing the drug-containing media, the cells were trypsinized (0.5 ml), neutralized with 1 ml of RPMI, centrifuged (300 × g, 5 min) and counted. From each sample, 2 × 10^5 AB12 cells were seeded into Cellstar 6-well plates (Greiner Bio-One) (1 ml per well).
2 × 10^5 J774 macrophages were detached from a petri dish by scraping and added to AB12 cells into 6-well plates. AB12 cells and J774 macrophages were co-incubated for 16 h at 37°C and 5% CO2, detached by scraping, centrifuged (300 × g, 5 min), and the pellets were resuspended in PBS for immediate analysis using a CytoFLEX Flow Cytometer (Beckman Coulter, USA). The percentage of phagocytosis was determined by calculating the number of double-positive macrophages (Q2) over the total number of macrophages (Q2 + Q3). Dot plots […]
analysis of the flow cytometry data. […]
concentrations for 100 min at 37 °C. […] Cell death was evaluated by flow cytometry using a CytoFLEX Flow Cytometer equipped with a 488 nm laser and a 638 nm laser (Beckman Coulter, Brea, CA, USA). The cells were excited by the 488 nm laser, and fluorescence emissions were detected at 525/40 nm for FITC (Annexin V) and at 610/20 nm for ECD (PI).
The percentage of necrosis was determined by calculating the sum of cells in Q1 and Q2. […]
(In general: A flow cytometer gives signals particle by particle.)

For assay [2], the system named is HMGB1 in AB12 cells. Description: HMGB1 detection, flow cytometry. Conditions: AB12, 5 × IC50 (72 h), 240 min. Format: cell-based, mouse.
Procedure: AB12 cells were seeded into Cellstar 6-well plates (Greiner Bio-One) at a density of 5 × 10^5 cells per well (2 ml per well). The cells were allowed to resume exponential growth for 16 h. […] After the treatment, the supernatant was collected in 2 mL microtubes. The wells were washed with 1 ml of PBS, trypsinized with 300 μL of trypsin at 37 °C for 5 min and combined with the corresponding supernatant. The cell suspension was then centrifuged (300  g, 10 min), washed with PBS (2  1 ml). […] RT, washed once with 1 mL PBS and centrifuged (500  g, 10 min). Next, cells were incubated with HMGB1 antibody (Catalogue number: 3935, Cell Signaling Technology) at 4 °C overnight (1:500 dilution in PBS) and washed with 1 ml of PBS (500  g, 10 min). […] The cells were excited by the 488 nm laser, and fluorescence S24 page 25: emission was detected at 525/40 nm for FITC (CRT). The resulting dot blots were acquired from 10,000 events and quantified using Flowjo software (version 10.8.0, BD Biosciences, San Jose, CA, USA).
For assay [3], the system named is AB12 cells in BALB/c mice. Description: In vivo vaccination model. Also noted: species or system mouse. The following applies: n = 8.
Source text: Initially, AB12 cells underwent pretreatment with varying concentrations of Au(III) complexes, and the induced cell death and release of desired ICD biomarkers were monitored over time. Upon reaching a cell death rate of 65%–75%, BALB/c mice (n = 8) were subcutaneously injected in the left flank with a vaccine containing 3 × 10^5 of live/dying/dead cells, while the vehicle group received injections of PBS. Seven days postvaccine administration, the immunized mice were rechallenged by inoculating the same number of live AB12 cells (without any prior treatment) into the right flanks (Figure 5A). The progression of tumor growth on the right flanks was monitored using a caliper.
AB12 cells were seeded into Cellstar 24-well plates (Greiner Bio-One) at a density of 1.8 × 104
cells/ml (1 ml per well) and allowed to grow exponentially for 16 hours. Subsequently, the
medium was replaced with 1 ml of fresh medium containing compounds of interest at
predetermined concentrations (with a minimum of 4 wells per treatment condition). These
concentrations were selected to induce 65-75% cell death.
Subsequently, the culture
medium was aspirated, and the cells were washed twice with 1 mL of PBS. The cell
concentration was adjusted to 3 × 10^5 cells (including dead/dying/live cells) per 100 μL of PBS,
and the ratio of dead/live cells was assessed using the Invitrogen Countess 3 cell counter. In
the subsequent experiment, BALB/c mice (8 mice per group) were subcutaneously injected
with 0.1 mL of AB12 cells (3 × 10^5 cells/mL, including dead/dying/live cells) or the
corresponding vehicle (PBS) on the left flank. Tumor growth was monitored daily.
After 7 days, the mice were subcutaneously injected with
0.1 mL of AB12 cells (3 × 10^5 cells/mL, live cells) on the right flank. Regular measurements
of body weights and tumor sizes were taken. Mice that developed palpable tumors were
euthanized for further analysis.

Data on two molecules can be found in paper PMC11887451, “Leveraging Immunogenic Cell Death to Enhance the Immune Response against Malignant Pleural Mesothelioma Tumors” (Journal of the American Chemical Society, 2025).

Molecules are shown by their SMILES.

For `F[P-](F)(F)(F)(F)F.c1cc[c]2c(c1)Nc1cccc[n+]1[Au-]21[S]C(=[N+]2CCCCCC2)[S]1` (stereo not drawn) [5G], the “necrosis level (Q1 + Q2)” value in assay [1] is given as 6%–8%. In the case of `Nc1nc2[nH]cc(CCc3ccc(C(=O)N[C@@H](CCC(=O)O)C(=O)O)cc3)c2c(=O)[nH]1` [Pemetrexed, pemetrexed, reference compound], the “HMGB1 expression (in words)” value in assay [2] is “significant increase in HMGB1 expression”. Besides, the “mice that developed tumors by Day 51” value in assay [3] is recorded as “four of the eight”.
